Data published in patent US20100222548A1, “METHOD FOR PRODUCING CONDENSATION PRODUCTS FROM N-SUBSTITUTED GLYCINE DERIVATIVES(PEPTOIDS) BY SEQUENTIAL UGI-MULTICOMPONENT REACTIONS” (priority 2006, published 2010).
Where a SMILES comes first, the peptide text is derived from it. [ ]: non-standard residue; d: D form. Gly(Nα-4-Cl-benzyl) = O=C(O)CNCc1ccc(Cl)cc1; Gly(N-(CH2)3OMe) = COCCCNCC(=O)O; N(iPr)Gly = CC(C)NCC(=O)O

System: Vibrio fischeri

## COCCCN(CC(=O)NCC(=O)O)C(=O)CNC(=O)CN(C(=O)CNC(=O)CN(Cc1ccc(Cl)cc1)C(=O)CN)C(C)C (H-G[Gly(Nα-4-Cl-benzyl)]G[N(iPr)Gly]G[Gly(N-(CH2)3OMe)]G-OH)
  IC50: ~10 µM
